{
  "source": "patent US20150359854A1",
  "about": "(HUMAN MATRIX SCIENCES, LLC, priority 2012, published 2015)",
  "key": {"[1]": {"system": "human aortic SMCs (AoSMCs)", "assay": "Quantitative assay of [3H]-valine-labeled insoluble elastin", "format": "cell-based", "conditions": "24-hour treatment, 0.5 to 100 nmol/L insulin", "protocol": "Cells were plated in 35-mm dishes at a density of 100,000 cells per dish and were grown to confluency. Two microcuries [3H]-valine per milliliter fresh medium supplemented with 2% FBS was added 2 hours before the indicated treatments. At the end of each experiment, the conditioned medium was collected and subjected to immunoprecipitation using anti-tropoelastin antibody. The cell layers were washed with PBS and incubated using radioimmunoprecipitation lysis buffer for 10 minutes on ice. After centrifugation, the supernatants were collected and subjected to immunoprecipitation using anti-tropoelastin antibody. The remaining pellets containing extracellular matrix were scraped and boiled in 500 μL 0.1 N NaOH for 30 minutes to solubilize all matrix components except the cross-linked elastin. Final results (counts per minute) reflecting the total amount of [3H]-valine-labeled insoluble elastin in individual cultures were normalized per their DNA contents (assessed using the Qiagen DNEASY® (DNA isolation) Tissue Kit) and expressed as percentage of control values."}, "tropoelastin mRNA": {"system": "tropoelastin mRNA", "assay": "RT-PCR assay of tropoelastin mRNA", "format": "cell-based, human", "conditions": "10 nmol/L insulin", "protocol": "At the end of the treatments, total RNA was extracted from quadruplicate cultures in each experimental group using the RNEASY® (RNA isolation) Mini Kit. One microgram total RNA from each sample was added to one-step RT-PCR (One-Step RT-PCR Kit; Qiagen, Inc.). The reactions were set up in a total volume of 25 μL. The reverse transcription step was performed for elastin and 18S ribosomal RNA reactions at 50° C. for 30 minutes, followed by 15 minutes at 95° C. The elastin PCR reaction using sense primer 5′[…]-3′ (SEQ ID NO 1) and antisense primer 5′[…]3′ (SEQ ID NO 2). The products were analyzed using ethidium bromide staining and densitometry-based image analysis using an optical system (Gel Doc 1000; Bio-Rad Laboratories, Inc., Hercules, Calif.). The amount of tropoelastin mRNA was standardized relative to the amount of 18S ribosomal RNA and expressed as percentage of control values."}, "FoxO1": {"system": "FoxO1", "assay": "FoxO1 binding to elastin gene promoter DNA probe (FRE) on DYNABEADS", "format": "cell-based, human", "protocol": "Cells were then scraped, and their nuclear extracts were pre-pared using an isolation kit (Active Motif, Inc.). […] The equal molar amounts of both single-stranded DNA oligonucleotides were annealed in Tris-EDTA buffer (10 mmol/L Tris-HCl, 1 mmol/L EDTA (pH 8.0)) to form the double-stranded DNA probe. […] All preparations were subsequently incubated for 2 hours in 200 μL binding buffer (50 mmol/L KCl, 10% glycerol, 20 mmol/L HEPES (pH 7.9), 1 mmol/L MgCl2, 1 mmol/L DTT, 0.1 μg poly(DI-DC) (polydeoxyinosinic-deoxycytidylic), and proteinase inhibitors). After binding, the beads were washed four times in the same binding buffer, without poly(DI-DC). The bound proteins were resolved using 8% SDS-PAGE and probed using Western blotting with the anti-FoxO1 monoclonal antibody."}, "[2]": {"system": "cultures derived from aortic adventitia, primarily fibroblasts", "assay": "Elastic fiber deposition in cultures derived from aortic adventitia", "format": "cell-based, human"}, "[3]": {"biological_target": "Insulin-Like Growth Factor-1 Receptor (IGFR-1R) (Homo sapiens, UniProt P08069)", "conditions": "cited from earlier work"}, "S-Gal/EBP": {"system": "S-Gal/EBP", "assay": "Association of tropoelastin with S-Gal/EBP chaperone (Western blot, co-immunoprecipitation, double immunostaining)", "format": "cell-based, human", "conditions": "20 minutes, 10 nmol/L insulin", "protocol": "Cultures fixed for 30 minutes in cold 100% methanol were then blocked with 1% glycine for 15 minutes, followed by 2% bovine serum albumin with 0.1% Triton X-100 for another hour at room temperature. They were finally exposed for 1 hour to the mixture of 5 μg/mL polyclonal anti-S-Gal/EBP and 5 μg/mL monoclonal anti-tropoelastin antibodies. All cultures were then incubated for another hour with the mixture of fluorescein-conjugated and rhodamine-conjugated secondary antibodies. Nuclei were counterstained with DAPI. At the end of all treatments, cells from quadruplicate cultures in each experimental group were lysed using NP40 cell lysis buffer (Invitrogen Corp.). Thirty micrograms of protein extracts from each sample was suspended in standard sample buffer, resolved on 4% to 12% gradient SDS-PAGE gels, transferred to nitrocellulose membranes, and subjected to Western blotting using antibodies. At the end of indicated treatments, the cultured cells were lysed as described, and 300 μL aliquots of cell extracts containing […] were incubated at 4° C. for 3 hours with the aliquots of protein G bound DYNABEADS® (Invitrogen Corp.) that were conjugated with either rabbit polyclonal anti-tropoelastin, goat polyclonal anti-Glut10, or rabbit polyclonal anti-S-Gal antibodies. The beads carrying the final immunoprecipitation products were then washed with PBS, resuspended in sample buffer, and boiled for 5 minutes. The released proteins were then resolved on SDS-PAGE gel and subjected to Western blotting using indicated antibodies."}},
  "note": "“Also recorded” adds a separate entry of the source.",
  "data": [
    {"substance": "insulin", "values": [
      {"measurement": "levels of metabolically labeled insoluble elastin", "setting": "[1]", "result": "up-regulated"},
      {"measurement": "time of peak up-regulation of tropoelastin mRNA", "setting": "tropoelastin mRNA", "result": 8, "unit": "h"},
      {"measurement": "tropoelastin mRNA level", "setting": "tropoelastin mRNA; in 4 hours (time course)", "result": "significant up-regulation"},
      {"measurement": "tropoelastin mRNA level", "setting": "tropoelastin mRNA; 8-hour treatment, serum-free", "result": "induced significant up-regulation"},
      {"measurement": "binding of FoxO1 from nuclear extracts to elastin promoter FRE DNA probe", "setting": "FoxO1; AoSMCs treated 30 minutes with 10 nmol/L insulin, or preincubated with LY294002", "result": "could not sequester FoxO1; also recorded: could not bind FoxO1"},
      {"measurement": "reversal by insulin of FoxO1 binding to the probe in LY294002-treated cells", "setting": "FoxO1; LY294002 preincubation, consecutive insulin", "result": "could not reverse this interaction"},
      {"measurement": "deposition of new elastic fibers in aortic adventitia cultures", "setting": "[2]; 1 nmol/L insulin, primarily fibroblasts", "result": "stimulated deposition of new elastic fibers"},
      {"measurement": "deposition of immunodetected elastic fibers in aortic media and adventitia cultures", "setting": "[2]; 48-hour treatment with 10 nmol/L insulin", "result": "deposit multiple immunodetected elastic fibers"},
      {"measurement": "lower affinity of IGFR-1R for insulin compared to the insulin receptor", "setting": "[3]", "result": 1000, "unit": "×"},
      {"measurement": "S-Gal/EBP coimmunoprecipitated using anti-tropoelastin antibody vs untreated", "setting": "S-Gal/EBP", "result": "significantly more"},
      {"measurement": "basic levels of intracellular S-Gal/EBP or tropoelastin (Western blot)", "setting": "S-Gal/EBP", "result": "did not demonstrate any increase; also recorded: do not demonstrate any increase"},
      {"measurement": "co-localization of tropoelastin and S-Gal/EBP (double immunostaining)", "setting": "S-Gal/EBP", "result": "reveal co-localization"}
    ]}
  ]
}
